From patent publication US20240368151A1, “NOVEL ERGOLINES AND METHODS OF TREATING MOOD DISORDERS” (priority 2021, published 2024)

Assays:
[1] = Metabolic stability in mouse liver microsomes (MLM); type: in vitro ADME; conditions: mouse, pooled mouse liver microsomes, pH 7.4, MLM (CD-1), NADPH
Excerpt: MLM Stability Pooled MLM from CD-1 mice (BIOIVT M00501) were used.

[2] = Metabolic stability in human liver microsomes (HLM); type: in vitro ADME; conditions: both sexes, human, pooled human liver microsomes, pH 7.4, NADPH
Excerpt: HLM Stability. Pooled HLM from adult male and female donors (Corning 452117) were used.

[3] = target: D2 receptor (Homo sapiens (Human), UniProt P14416); assay: FLIPR Ca^2+ flux agonist assay at D2; type: cell-based
Protocol: (§1) Functional Assays at Adrenergic and Dopamine Receptors. Agonist activity at Alpha1A, Alpha2A, D1, and D2 receptors was determined using a FLIPR Ca^2+ flux assay at WuXi AppTec (Hong Kong) Limited according to their standard protocols. Briefly, stably transfected cells expressing the receptor of interest were grown and plated in a 384 well plate and incubated at 37° C. and 5% CO2 overnight. A solution of 250 mM probenecid in 1 mL FLIPR assay buffer was prepared fresh. This was combined with a fluorescent dye (Fluo-4 Direct™) to make a final assay concentration of 2.5 mM. […] The fluorescent dye was then added to the assay plate along with assay buffer to a final volume of 40 μL. The cell plate was incubated for 50 min at 37° C. and 5% CO2 and placed into the FLIPR Tetra along with the compound plate. 10 μL of references and compounds were then transferred from the compound plate into the cell plate and the fluorescent signal was read.

[4] = target: D1 receptor (Homo sapiens (Human), UniProt P21728); assay: FLIPR Ca^2+ flux agonist assay at D1; type: cell-based
Protocol: as §1

[5] = Metabolic stability in rat liver microsomes (RLM); type: in vitro ADME; conditions: both sexes, rat, pooled rat liver microsomes, pH 7.4, NADPH
[6] = target: Alpha2A receptor (Homo sapiens (Human), UniProt P08913); assay: FLIPR Ca^2+ flux agonist assay at Alpha2A; type: cell-based
Protocol: as §1

[7] = target: T1, 5-HT2A receptor (Homo sapiens (Human), UniProt P28223); type: cell-based; conditions: for 5-HT2A Arrestin % Act @ Max Dose / agonist type in the 5-HT2A arrestin recruitment assay, in words: beta-arrestin recruitment; for arrestin bias: potency in arrestin assay compared to Ca^2+ signaling assay: 5-HT2A arrestin vs G protein-dependent Ca^2+ assay
Summary of the method: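 PathHunter enzyme-fragment complementation in cells expressing ProLink-tagged 5-HT2A and β-arrestin–β-galactosidase fusion. Cells incubated at 37 °C before testing; recruitment read by chemiluminescence. Agonist activity expressed as % of maximal control ligand response after vehicle subtraction.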

[8] = target: Alpha1A receptor (Homo sapiens (Human), UniProt P35348); assay: FLIPR Ca^2+ flux agonist assay at Alpha1A; type: cell-based
Protocol: Disclosed compounds were tested for agonist activity at several adrenergic (Alpha1A and Alpha2A) and dopamine (D1 and D2) receptor subtypes using Ca^2+ flux functional assays, with the results summarized in Table 6. Selectivity for the 5-HT2A receptor over these other targets varied depending on the specific target and compound.
Functional Assays at Adrenergic and Dopamine Receptors. Agonist activity at Alpha1A, Alpha2A, D1, and D2 receptors was determined using a FLIPR Ca^2+ flux assay at WuXi AppTec (Hong Kong) Limited according to their standard protocols. Briefly, stably transfected cells expressing the receptor of interest were grown and plated in a 384 well plate and incubated at 37° C. and 5% CO2 overnight. A solution of 250 mM probenecid in 1 mL FLIPR assay buffer was prepared fresh. This was combined with a fluorescent dye (Fluo-4 Direct™) to make a final assay concentration of 2.5 mM. Compounds were diluted 1:3.16 for 10 points and 750 nL was added to a 384 well compound plate using ECHO along with 30 μL assay buffer. The fluorescent dye was then added to the assay plate along with assay buffer to a final volume of 40 μL. The cell plate was incubated for 50 min at 37° C. and 5% CO2 and placed into the FLIPR Tetra along with the compound plate. 10 μL of references and compounds were then transferred from the compound plate into the cell plate and the fluorescent signal was read.

[9] = target: T1, 5-HT2A receptor; type: cell-based; conditions: for 5-HT2A % Act @ Max Dose: Ca^2+ flux, HEK293
Summary of the method: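 Agonist-induced calcium flux was measured on FLIPR Tetra in stable HEK293 cells for 5-HT2A and 5-HT2B, and in stable CHO cells for 5-HT1A. Cells were loaded with Fluo-4 Direct dye and 2.5 mM probenecid for 50 min at 37 °C before compound addition and fluorescence reading.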

D1 receptor, sequence (P21728 whole entry, looked up): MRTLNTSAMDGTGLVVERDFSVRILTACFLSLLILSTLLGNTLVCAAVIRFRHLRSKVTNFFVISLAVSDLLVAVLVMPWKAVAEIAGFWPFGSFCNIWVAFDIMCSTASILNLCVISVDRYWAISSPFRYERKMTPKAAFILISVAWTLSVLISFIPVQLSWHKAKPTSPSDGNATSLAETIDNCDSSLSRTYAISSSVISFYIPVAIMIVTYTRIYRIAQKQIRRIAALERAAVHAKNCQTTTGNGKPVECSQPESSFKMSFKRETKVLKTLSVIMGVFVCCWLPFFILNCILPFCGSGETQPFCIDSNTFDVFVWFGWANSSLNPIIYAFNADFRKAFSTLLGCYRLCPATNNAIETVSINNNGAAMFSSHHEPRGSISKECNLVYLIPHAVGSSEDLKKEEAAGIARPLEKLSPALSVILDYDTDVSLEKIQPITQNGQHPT
Alpha2A receptor, sequence (P08913 whole entry, looked up): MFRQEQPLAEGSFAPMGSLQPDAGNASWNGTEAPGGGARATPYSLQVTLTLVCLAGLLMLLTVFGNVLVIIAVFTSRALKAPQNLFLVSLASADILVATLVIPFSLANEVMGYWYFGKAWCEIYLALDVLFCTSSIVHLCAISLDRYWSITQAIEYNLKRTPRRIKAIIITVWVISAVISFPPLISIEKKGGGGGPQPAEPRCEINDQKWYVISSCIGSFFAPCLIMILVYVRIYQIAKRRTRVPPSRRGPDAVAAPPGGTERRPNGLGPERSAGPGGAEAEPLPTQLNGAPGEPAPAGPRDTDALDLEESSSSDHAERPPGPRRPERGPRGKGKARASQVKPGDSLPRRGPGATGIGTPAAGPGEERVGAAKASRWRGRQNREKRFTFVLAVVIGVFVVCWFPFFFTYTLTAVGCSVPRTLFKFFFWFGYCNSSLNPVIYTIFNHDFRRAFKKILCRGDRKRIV
Alpha1A receptor, sequence (P35348 whole entry, looked up): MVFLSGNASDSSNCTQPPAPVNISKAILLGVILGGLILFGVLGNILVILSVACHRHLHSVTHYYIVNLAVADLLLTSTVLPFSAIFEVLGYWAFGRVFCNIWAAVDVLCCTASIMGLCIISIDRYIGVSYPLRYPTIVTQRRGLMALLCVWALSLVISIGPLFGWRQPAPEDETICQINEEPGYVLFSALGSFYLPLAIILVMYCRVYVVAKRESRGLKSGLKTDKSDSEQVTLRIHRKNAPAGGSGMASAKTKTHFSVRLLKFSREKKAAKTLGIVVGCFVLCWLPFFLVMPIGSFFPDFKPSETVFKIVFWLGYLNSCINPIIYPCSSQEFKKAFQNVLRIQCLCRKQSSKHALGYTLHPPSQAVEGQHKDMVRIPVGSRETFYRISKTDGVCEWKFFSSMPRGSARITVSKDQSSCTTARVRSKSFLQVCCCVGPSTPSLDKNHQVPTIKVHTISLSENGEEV
D2 receptor, sequence (P14416 whole entry, looked up): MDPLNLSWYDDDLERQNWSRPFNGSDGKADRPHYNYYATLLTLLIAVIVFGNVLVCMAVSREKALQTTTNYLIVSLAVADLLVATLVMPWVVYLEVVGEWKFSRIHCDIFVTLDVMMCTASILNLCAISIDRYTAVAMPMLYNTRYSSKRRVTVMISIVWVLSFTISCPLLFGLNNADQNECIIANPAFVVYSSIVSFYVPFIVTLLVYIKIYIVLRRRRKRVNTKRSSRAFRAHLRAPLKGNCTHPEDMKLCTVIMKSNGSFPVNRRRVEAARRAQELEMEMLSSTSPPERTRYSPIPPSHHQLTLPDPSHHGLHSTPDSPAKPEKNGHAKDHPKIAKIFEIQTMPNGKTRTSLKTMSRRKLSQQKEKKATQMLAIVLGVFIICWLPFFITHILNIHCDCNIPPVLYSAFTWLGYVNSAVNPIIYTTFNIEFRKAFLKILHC

SMILES | half-life at 1 μM [1] [min] | half-life at 1 μM [2] [min] | D2 % Act @ Max Dose [3] [%] | D1 % Act @ Max Dose [4] [%] | half-life at 1 μM [5] [min] | Alpha 2A % Act @ Max Dose [6] [%] | 5-HT2A Arrestin % Act @ Max Dose [7] [%] | agonist type in the 5-HT2A arrestin recruitment assay, in words [7] | Alpha 1A % Act @ Max Dose [8] [%] | 5-HT2A % Act @ Max Dose [9] [%] | agonist efficacy at Alpha2A, in words [6] | arrestin bias: potency in arrestin assay compared to Ca^2+ signaling assay [7] [fold] | agonist efficacy at Alpha1A, in words [8] | selectivity for the 5-HT2A receptor over the tested adrenergic and dopamine receptors, in words ([9]; vs Alpha1A, Alpha2A, D1, D2)
CCCN1C[C@H](C(=O)N(CC)CC)C=C2c3cccc4[nH]cc(c34)C[C@H]21 [Compound 1, (6aR,9R)-N,N-diethyl-7-propyl-4,6,6a,7,8,9-hexahydroindolo[4,3-fg]quinoline-9-carboxamide] | 2.3 | 15.1 | 94.51 | 108.68 | 16.2 | 58.3 | 128.71 | full agonists | 80.6 | 96.96 |  |  |  | 
CCN(CC)C(=O)[C@@H]1C=C2c3cccc4[nH]cc(c34)C[C@H]2N(CCc2ccccc2OC)C1 [Compound 11, (6aR,9R)-N,N-diethyl-7-(2-methoxyphenethyl)-4,6,6a,7,8,9-hexahydroindolo[4,3-fg]quinoline-9-carboxamide] | 0.917 | 2.37 | 98.49 | 90.9 | 1.16 | 14.18 | 54.255 | partial agonists | 28.23 | 63.46 | very low efficacy agonists | > 50 | very low efficacy agonists | 
CCN(CC)C(=O)[C@@H]1C=C2c3cccc4[nH]cc(c34)C[C@H]2N(Cc2ccccc2OC)C1 [Compound 10, (6aR,9R)-N,N-diethyl-7-(2-methoxybenzyl)-4,6,6a,7,8,9-hexahydroindolo[4,3-fg]quinoline-9-carboxamide] | 1 | 7.3 | 86.87 | 114.19 | 3.4 | 36.52 | 47.06 | partial agonists | 26.56 | 49.44 | very low efficacy agonists | > 50 | very low efficacy agonists | 
CCCN1C[C@H](C(=O)N[C@H](C)CC)C=C2c3cccc4[nH]cc(c34)C[C@H]21 [Compound 3, (6aR,9R)-N-((R)-sec-butyl)-7-propyl-4,6,6a,7,8,9-hexahydroindolo[4,3-fg]quinoline-9-carboxamide] | 1.6 | 4.2 | 116.9 | 121.3 | 4.4 | 96.82 | 109.57 | full agonists | 124.7 | 102.64 |  |  |  | exceptional selectivity
CCN(CC)C(=O)[C@@H]1C=C2c3cccc4[nH]cc(c34)C[C@H]2N(CCCF)C1 [Compound 2, (6aR,9R)-N,N-diethyl-7-(3-fluoropropyl)-4,6,6a,7,8,9-hexahydroindolo[4,3-fg]quinoline-9-carboxamide] | 2.67 | 19.1 | 91.2 | 113.6 | 12 | 64.96 | 114.55 | full agonists | 109.68 | 97.75 |  |  |  | 
CCCN1C[C@H](C(=O)N2[C@@H](C)C[C@@H]2C)C=C2c3cccc4[nH]cc(c34)C[C@H]21 [Compound 4, ((2S,4S)-2,4-dimethylazetidin-1-yl)((6aR,9R)-7-propyl-4,6,6a,7,8,9-hexahydroindolo[4,3-fg]quinolin-9-yl)methanone] | 0.8 | 10.6 | 116.6 | 113.6 | 12.8 | 102.86 | 116.8 | full agonists | 118.64 | 97.6 |  |  |  | 
CCCN1C[C@H](C(=O)NC(CC)CC)C=C2c3cccc4[nH]cc(c34)C[C@H]21 [Compound 6, (6aR,9R)-N-(pentan-3-yl)-7-propyl-4,6,6a,7,8,9-hexahydroindolo[4,3-fg]quinoline-9-carboxamide] | 0.6 | 1.61 | 91.67 | 93.13 | 1.66 |  | 102.75 | full agonists |  | 94.64 |  |  |  | 
